{"source": "patent US20150353626A1", "about": "“APOLIPOPROTEIN A-I DERIVED PEPTIDES FOR TREATMENT OF HYPERGLYCAEMIA” (priority 2013, published 2015)", "molecules": {"B1": {"name": "190-243 polypeptide fragment of human apoA-I (SEQ ID NO: 1) (peptide, not shown: small tags and cut ends)", "chain": "AEYHAKATEHLSTLSEKAKPALEDLRQGLLPVLESFKVSFLSALEEYTKKLNTQ", "modifications": "also: N-terminal hexa-His tag (letters not given here)", "notes": "Recombinant, expressed in E. coli"}}, "key": {"[1]": {"system": "insulin resistant C57Bl/6 mice", "assay": "Glucose tolerance test in high-fat diet fed (HFD) mice", "type": "in vivo, mouse", "conditions": "glucose load 3 hours later", "experimental": "Male C57BL/6 mice (Taconic) were used at 9-12 weeks of age. Animals were on a 12 hour light cycle with non-restricted food and water. The HFD animals were fed an HFD (D12492, 60% fat content; Research Diets) for 2 weeks. All animal procedures were approved by the Malmo/Lund Committee for Animal Experiment Ethics, Lund, Sweden. HFD mice fasted overnight (12 hours) were injected intra peritoneal (i.p.) with apoA-I peptides as listed above ([…] in PBS pH 7.4 for the 54-mer fragment and 6-7 mg/kg for other fragments in PBS, pH 7.4; control animals received NaCl) and this was followed by collection of serum samples at the indicated times. Glucose (50 mg/mouse) was injected i.p. 3 hours after treatments, followed by collection of serum samples at the indicated times. Blood glucose levels were measured (OnetouchUltra2; Lifescan), and insulin levels were assayed in serum using ELISA (Mercodia)."}, "L6 myotubes": {"system": "L6 myotubes", "assay": "Glucose uptake in L6 myotubes (2-[3H]-deoxy-D-glucose)", "type": "cell-based", "conditions": "2 h serum starved, 50 μg/ml (1.6 μmol/l) apoA-I or 100 nmol/l insulin, 1 hour, FIG. 1b", "experimental": "L6 myoblasts (ATCC #CRL-1458) were grown in α-MEM (Invitrogen) supplemented with 10% FBS (Sigma) and 1% antibiotic/antimycotic (Penicillin, streptomycin, amphotericin B; Invitrogen). Differentiation to myotubes was achieved by switching from growth media to 2% FBS a-MEM for 6-7 or 6-12 days. Cells were maintained at 37° C. and 5% CO2.\nPrior to stimulation (or treatment) cells were starved for 2 hours in serum-free a-MEM and all subsequent treatments, which were performed in triplicate and included cytochalasin B (Sigma) as a measure of cell associated non-specific radioactivity, were performed in uptake buffer (140 mmol/l NaCl, 20 mmol/l HEPES, 5 mmol/l KCl, 2.5 mmol/l MgSO4, 1 mmol/l CaCl2, pH 7.4). After stimulation, treatments were replaced with 10 μmol/l 2-deoxy-D-glucose (Sigma), 10 μmol/l 2-[3H]-deoxy-D-glucose (Perkin Elmer) in uptake buffer for 15 mins at room temperature. Cells were then washed twice with ice cold PBS and lysed with 1 mol/l NaOH on ice. Lysates were collected and radioactivity quantified by scintillation counting.\nIn order to investigate the effect of discodial HDL (rHDL) on GLUT4 translocation and glucose uptake, we produced recombinant human apoA-I and reconstituted HDL needed for cell incubations. L6 myotubes were incubated with 50 μg/ml (1.6 μmol/l) apoA-I for 1 hour followed by a glucose uptake assay as described above. […] Next, L6 myotubes were treated by incubation with 50 μg/ml discodial rHDL (expressed as total concentration of apoA-I in rHDL, given 2 apoA-I molecules per particle) for 1 hour. […] This experiment was thereafter repeated in more controlled manner including cell number and quality (cells were similarly treated during differentiation from myoblasts to multinuclear myotubes, with respect to the time between splitting cells, cell density, passage of cells used.) (FIG. 7c).\nThe relative effect of specific regions of apoA-I to increase glucose uptake was investigated using truncated protein fragments corresponding to residues 1-189 (N-terminal/central domain), 44-189 (central domain), 44-243 (central/C-terminal domain) and 190-243 (C-terminal domain) of full-length apoA-I (FIG. 4a). The treatments with incubation of truncated protein fragments were performed as described above for treatment of L6 myotubes with full-length apoA-I and followed by a glucose uptake assay as described above.\nTo test for the contribution of the constituent phospholipid to rHDL-induced glucose uptake in L6 myotubes, rHDL made with DMPC was also produced and compared to 100 nm DMPC vesicles containing no apoA-I protein. Stable 100 nm diameter vesicles can be synthesized with DMPC in the absence of apoA-I and was therefore used as a phospholipid control. The effect on the glucose uptake was tested as described above. […] To also test for the contribution of the constituent POPC phospholipid to rHDL-induced glucose uptake, rHDL made with POPC was compared with 100 nm POPC vesicles containing no apoA-I protein."}, "[2]": {"assay": "Circular dichroism spectroscopy, alpha-helical content", "type": "physicochemical", "conditions": "0.2 mg/ml in PBS pH 7.4, 25° C.", "experimental": "CD measurements were performed on a Jasco J-810 spectropolarimeter equipped with a Jasco CDF-4265 Peltier set to 25° C. ApoA-I (full-length and the 190-234 polypeptide fragment) was diluted to 0.2 mg/ml in PBS (final concentration was 25 mmol/l phosphate, 25 mmol/l NaCl, pH 7.4), placed in a 0.1 mm quartz cuvette and, after extensive purging with nitrogen, scanned in the region 200 to 260 nm (scan speed was 20 nm/min). Averages of five scans were baseline-subtracted (PBS; 25 mmol/l phosphate, 25 mmol/l NaCl) and the alpha-helical content was calculated from the molar ellipticity at 222 nm as previously described (Petrlova et al. (2012) J Lipid Res 53: 390-398)."}, "[3]": {"conditions": "apo-state versus discoidal HDL; Saito et al. (2004); cited from earlier work"}, "AMPK": {"system": "AMPK", "assay": "Western blot for phosphorylated AMPK in L6 myotube lysates", "type": "cell-based", "conditions": "L6 myotubes, 60 minutes; rHDL 700 μg/ml apoA-I; phenformin 0.4 mmol/l; FIG. 3a,b", "experimental": "(§1) Prior to stimulation or treatment cultured myoblast cells were serum starved for 4 hours in serum-free α-MEM and all subsequent treatments, including insulin or phenformin as positive controls (Sigma), were performed in serum free a-MEM. After treatments, cells were washed with ice cold PBS buffer and lysed on ice using a non-denaturing lysis buffer (1% Triton X-100, 50 mmol/l Tris, 150 mmol/l NaCl, pH 8.0) containing protease and phosphatase inhibitors (Roche). Lysates were centrifuged at 16,000×g, 20 minutes at 4° C. and BCA protein assay (Pierce) was performed on supernatants. Equal protein amounts were separated by SDS-PAGE and transferred to nitrocellulose membranes. pAMPK, AMPK, pACC, pAkt, Akt and tubulin were used for immunodetection with IRDye 800CW and 680RD secondary antibodies (LI-COR). Blots were imaged using the Odyssey Fc system and quantified using Image studio v2.0 software.\nTo dissect the effect of discoidal rHDL on a non-insulin dependent signaling pathway, we conducted western blotting using lysates from L6 myotubes incubated with rHDL. […] Phenformin was used as a positive control, inducing a 1.98±0.33-fold (p=≦0.05) and 2.7±0.74-fold (p=≦0.05) elevation of phosphorylated AMPK and ACC, respectively, at a concentration of 0.4 mmol/l. […] Representative immunoblots of those quantified for FIGS. 3a, c and f are given in FIGS. 3b, d and e, respectively. […]"}, "ACC": {"system": "ACC", "assay": "Western blot for phosphorylated ACC in L6 myotube lysates", "type": "cell-based", "conditions": "L6 myotubes, 60 minutes; rHDL 700 μg/ml apoA-I; phenformin 0.4 mmol/l; FIG. 3c,d", "experimental": "as §1\nTo dissect the effect of discoidal rHDL on a non-insulin dependent signaling pathway, we conducted western blotting using lysates from L6 myotubes incubated with rHDL. […] Phenformin was used as a positive control, inducing a 1.98±0.33-fold (p=≦0.05) and 2.7±0.74-fold (p=≦0.05) elevation of phosphorylated AMPK and ACC, respectively, at a concentration of 0.4 mmol/l. […] Representative immunoblots of those quantified for FIGS. 3a, c and f are given in FIGS. 3b, d and e, respectively."}, "[4]": {"molecular_target": "the molecule itself", "assay": "blue native PAGE, coomassie stained; self-association (homo-oligomer) in solution and after 1 hour with L6 myotubes", "description": "It is known that the 190-234 polypeptide fragment can form discoidal particles by solubilisation of lipid in solution (Vedhachalan et al. (2010) J Biol Chem 285:31965-31973), which can be visualised as oligomers on native PAGE. […] Lipid-free apoA-I and rHDL were included on the gel as a full length protein monomer and dimer reference."}, "[5]": {"conditions": "18-mer peptides, single injection 7 mg/kg, FIG. 12"}, "[6]": {"conditions": "23- or 27-mer peptides, single injection 6-7 mg/kg, FIG. 11"}}, "note": "Ends that are not written are not given here.", "data": [{"molecule": "SEQ ID NO: 4: fragment consisting of amino acids 226-243 of human ApoA-I (KVSFLSALEEYTKKLNTQ; listed as Homo Sapiens)", "values": [{"measurement": "glucose tolerance capacity / capacity to clear blood glucose (in words)", "setting": "[1]; [5]", "value": "showed particular increased capacity to clear blood glucose"}]}, {"molecule": "SEQ ID NO: 8: fragment consisting of amino acids 217-243 of human ApoA-I (GLLPVLESFKVSFLSALEEYTKKLNTQ; listed as Homo Sapiens)", "values": [{"measurement": "glucose tolerance capacity / capacity to clear blood glucose (in words)", "setting": "[1]; [6]", "value": "showed particular increased capacity to clear blood glucose"}]}, {"molecule": "SEQ ID NO: 518: fragment consisting of amino acids 204-226 of human ApoA-I (SEKAKPALEDLRQGLLPVLESFK; listed as Homo Sapiens)", "values": [{"measurement": "glucose tolerance capacity / capacity to clear blood glucose (in words)", "setting": "[1]; [6]", "value": "showed particular increased capacity to clear blood glucose"}]}, {"molecule": "apoA-I: recombinant full-length human apolipoprotein A-I, amino acids 1-243, lipid-free", "values": [{"measurement": "increased glucose uptake", "setting": "L6 myotubes", "value": 1.3, "unit": "fold"}, {"measurement": "helical content from molar ellipticity at 222 nm", "setting": "[2]", "value": 43, "unit": "%"}, {"measurement": "alpha-helical secondary structure", "setting": "[3]", "value": "about 44%"}]}, {"molecule": "[H]/N=C(/N)N/C(=N/[H])NCCc1ccccc1", "note": "[Phenformin, phenformin, reference compound]", "values": [{"measurement": "levels of phosphorylated AMPK", "setting": "AMPK", "value": "1.98±0.33", "unit": "fold"}, {"measurement": "levels of phosphorylated ACC", "setting": "ACC", "value": "2.7±0.74", "unit": "fold"}]}, {"molecule": "SEQ ID NO: 2: fragment consisting of amino acids 190-207 of human ApoA-I (AEYHAKATEHLSTLSEKA; listed as Homo Sapiens)", "values": [{"measurement": "glucose tolerance capacity / capacity to clear blood glucose (in words)", "setting": "[1]; [5]", "value": "showed particular increased capacity to clear blood glucose"}]}, {"molecule": "B1", "values": [{"measurement": "binding result", "setting": "[4]", "value": "binds"}]}]}
